# According to PMC9873984, “Membrane cholesterol regulates inhibition and substrate transport by the glycine transporter, GlyT2” (Life Science Alliance, 2023):
# Residue numbers refer to the chain shown, from its start.
# Legend:
# GlyT2 T512A mutant = molecular target: T1, GlyT2 T512A mutant (Homo sapiens, UniProt Q9Y345, T512A)
# T1 sequence (Q9Y345 1-797 T512A): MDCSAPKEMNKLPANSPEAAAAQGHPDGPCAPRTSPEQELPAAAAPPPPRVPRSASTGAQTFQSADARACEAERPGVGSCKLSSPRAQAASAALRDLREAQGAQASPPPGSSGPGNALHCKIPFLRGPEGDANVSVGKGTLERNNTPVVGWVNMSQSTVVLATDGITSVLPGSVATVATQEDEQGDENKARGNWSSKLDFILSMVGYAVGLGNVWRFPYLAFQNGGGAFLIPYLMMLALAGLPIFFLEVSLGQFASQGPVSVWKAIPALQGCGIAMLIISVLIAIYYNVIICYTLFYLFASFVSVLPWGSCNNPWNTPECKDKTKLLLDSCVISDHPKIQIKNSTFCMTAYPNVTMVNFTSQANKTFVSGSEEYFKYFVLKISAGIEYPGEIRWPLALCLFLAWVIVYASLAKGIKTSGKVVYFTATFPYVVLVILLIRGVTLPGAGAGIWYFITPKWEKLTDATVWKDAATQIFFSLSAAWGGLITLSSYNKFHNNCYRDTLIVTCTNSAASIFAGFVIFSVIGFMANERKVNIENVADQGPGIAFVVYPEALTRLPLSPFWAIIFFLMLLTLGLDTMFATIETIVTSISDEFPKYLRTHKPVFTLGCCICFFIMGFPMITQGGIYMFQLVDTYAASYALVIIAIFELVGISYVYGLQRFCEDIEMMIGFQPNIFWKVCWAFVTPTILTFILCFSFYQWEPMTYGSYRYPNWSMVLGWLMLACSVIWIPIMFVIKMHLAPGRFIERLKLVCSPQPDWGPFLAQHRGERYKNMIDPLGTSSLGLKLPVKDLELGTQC
# Source text: (§1) GlyT2a (referred to herein as GlyT2) was subcloned into the plasmid oocyte transcription vector (pOTV) for expression in Xenopus laevis oocytes. Oligonucleotide primers incorporating desired mutations were synthesized by Sigma-Aldrich and used to generate point mutations in the GlyT2 cDNA/pOTV construct using the Q5 site-directed mutagenesis kit (New England Biolabs [Genesearch]). Amplified PCR products were transformed into chemically competent E. coli cells and purified using the GeneJET Plasmid Miniprep Kit (Thermo Fisher Scientific). Purified plasmid DNA was sequence-verified by the Australian Genome Research Facility. pOTV constructs were linearized with the restriction enzyme SpeI (New England Biolabs [Genesearch]), and RNA was transcribed by T7 RNA polymerase using the mMESSAGE mMACHINE T7 kit (Thermo Fisher Scientific).
# (§2) The transport activity of GlyT2 is an electrogenic process as it couples the transport of glycine to the co-transport of 3 Na^+ and 1 Cl^− and thus can be measured using two-electrode voltage-clamp electrophysiology. Oocytes expressing GlyTs were voltage-clamped at −60 mV, and glycine-induced whole-cell currents were measured using a GeneClamp 500 amplifier (Axon Instruments), and a PowerLab 2/26 chart recorder (ADInstruments) and LabChart Software (ADInstruments).
# (§3) Functionality of WT and mutant GlyT2 transporters was assessed by applying increasing concentrations of glycine (1–3,000 µM) in ND96 until a stable current was achieved. Glycine concentrations were applied individually and completely removed from the system via washing with recording buffer before proceeding to the next concentration. EC50 values for each transporter were determined by fitting concentration–response data to the modified Michaelis–Menten equation: I=([Gly].Imax)/(EC50+[Gly]), where I is current in nA, [Gly] is the concentration of glycine, Imax is the current generated by a maximal concentration of glycine, and EC50 is the concentration of glycine that generates a half-maximal current.
# GlyT2 Y430L mutant = molecular target: T2, GlyT2 Y430L mutant (Homo sapiens, UniProt Q9Y345, Y430L); details: read-out: Glycine EC50; Y430L (TM5)
# T2 sequence (Q9Y345 1-797 Y430L): T1 sequence (Q9Y345 1-797 T512A) with Y430L, A512T
# Source text: as §1, §2, §3
smiles,measurement,setting,value
"NCC(=O)O [Glycine, glycine]",Reduction in apparent glycine affinity compared to WT,GlyT2 T512A mutant; T512A vs WT,4.8 fold
same,EC50,"GlyT2 T512A mutant; read-out: Glycine EC50, T512A (TM7)",90 µM
same,EC50,GlyT2 Y430L mutant,19 µM
